# Measurements taken from US20050153872A1, “Methods and compositions for the treatment of infection” (priority 2004, published 2005).
# Where two headings read alike, the source gives them in different places.
# B1: Rev. Ph-CA: Candida albicans alpha mating pheromone at N-terminus (S1) of colicin Ia (protein)
# chain: GFRLTNFGYFEPGMSDPVARGITNPGAESLGYDSDGHEIMAVASPIYVASNPPRVASPVFHGTPPAWSSFGNKTIWGGNEWVASPDSPTRSDIEKRDKEITAYKNTLSAQQKENENKRTEAGKRLSAAIAAREKDENTLKTLRAGNADAADITRQEFRLLQAELREYGFRTEIAGYDALRLHTESRMLFADADSLRISPREARSLIEQAEKRQKDAQNADKKAADMLAEYERRKGILDTRLSELEKNGGAALAVLDAQQARLLGQQTRNDRAISEARNKLSSVTESLNTARNALTRAEQQLTQQKNTPDGKTIVSPEKFPGRSSTNHSIVVSGDPRFAGTIKITTSAVIDNRANLNYLLSHSGLDYKRNILNDRNPVVTEDVEGDKKIYNAEVALAEWDKLRQRLLDARNKITSAESAVASNSARNNLSARTNEQKHANDALNALLKEKENIRNQLSGINQKIAEEKRKQDELKATKDAINFTTEFLKSVSEKYGAKAEQLAREMAGQAKGKKIRNVEEALKTYEKYRADINKKINAKDRAAIAAALESVKLSDISSNLNRFSRGLGYAGKFTSLADWITEFGKAVARGTENWRPLFVKTETIIAGNAATALVALALVFSILTGSALGIIGYGLLMAVTGALIDESLVEKANKFWGI
# modifications: Candida albicans alpha mating pheromone attached to colicin
# What was measured:
# [1] = test system: Candida albicans ATCC 10231; assay: In vitro cell growth inhibition assay (OD595, filaments)
# [2] = test system: Staphylococcus aureus MRSA 02-18; assay: microbe, parasite or virus in culture; assay type: cell-based; conditions: Staphylococcus aureus, MRSA
# [3] = test system: Enterococcus faecalis ATCC 700802; assay: microbe, parasite or virus in culture; assay type: cell-based; conditions: Enterococcus faecalis, ATCC700802
# [4] = test system: Staphylococcus aureus ATCC 29213; assay: MIC against challenge strain (Table 3); assay type: cell-based
# [5] = test system: Staphylococcus aureus MRSA 02-18; assay: In vivo protection of infected mice; set-up: species or system Kungming mice
# Method: (§1) The following experiments were performed by Pharmacology Lab, National Sichuan antibiotic industril institute, Chengdu, Sichuan.
# (§2) The agents described above were diluted with sterilized water to final concentrations of 10 mg/L, 5 mg/Land 2.5 mg/L.
# (§3) Staphylococcus aureus ATCC BAA-42(MRSA) and enterococcus faecalis ATCC 700802 were used as control strains.
# (§4) 170 mice (Kungming mice: 18˜22 g, 85 males and 85 females) were randomly divided into four groups and injected with a fatal dosage of staphylococci, enterococcus and E. coli intraperitoneally. […] Mice were inspected every 24 hours for 7-14 days. Dead mice were counted as positive results. The results are depicted in Table 3 and FIGS. 4 and 5A-B.
# [6] = test system: Staphylococcus aureus MRSA BAA-42; assay: In vivo protection of infected mice; set-up: species or system Kungming mice
# Method: as §1, §2, §3, §4
# [7] = test system: Enterococcus faecalis ATCC 700802; assay: In vivo protection of infected mice; set-up: species or system Kungming mice
# Method: as §1, §2, §3, §4
# Enterococcus (20) = assay: In vitro antibacterial activity (MIC), clinical isolates; assay type: cell-based; conditions: 20 Enterococcus clinical isolates
# Method: (§5) The following experiments were performed by Lab. of Pharmacology, National Sichuan antibiotic industril institute, Chengdu, Sichuan.
# (§6) The following agents were used to test the in vitro activity of Ph-SA:
# (§7) All the bacterial strains used in the experiments were clinical isolates collected from Sichuan and Beijing in 2002 and identified by West China Hospital, Sichuan University and Chongqing University of Medical Sciences with API system. The following strains were used in the experiments detailed below: Staphylococcus aureus 168 strains (MRSA 80 strains and MSSA 88 strains) Staphylococcus epidermidis 46 strains (MRSE 25 strains and MSSE 21 strains), Enterococcus 20 strains, and Acenetobactor 20 strains. Staphylococcus aureus ATCC25923, 29213 and BAA-42 were used as control strains. Bacterial strains were contacted with one of the above described compounds and MIC50, MIC90 and MICScope were determined.
# [8] = test system: Staphylococcus epidermidis MSSE strain (21); assay: as above; assay type: cell-based; conditions: Staphylococcus epidermidis, 21 MSSE clinical isolates
# Method: as §5, §6, §7
# [9] = test system: Staphylococcus aureus MRSA strain (80); assay: as above; assay type: cell-based
# Method: as §5, §6, §7
# [10] = test system: Staphylococcus epidermidis MRSE strain (25); assay: as above; assay type: cell-based
# Method: as §5, §6, §7
# Acenetobactor (20) = assay: as above; assay type: cell-based
# Method: as §5, §6, §7
# [11] = test system: Staphylococcus aureus MSSA strain (88); assay: as above; assay type: cell-based; conditions: Staphylococcus aureus, MSSA
# Method: as §5, §6, §7
# Escherichia coli 02-1-65 [12] = assay: In vivo protection of infected mice; set-up: species or system Kungming mice; conditions: i.p. infection 3.3 × 10^5 cfu/ml
# Method: as §1
# (§8) The agents described above were diluted with sterilized water to final concentrations of 10 mg/L, 5 mg/Land 2.5 mg/L. […]
# as §4
# [13] = test system: Staphylococcus aureus ATCC 29213; assay: In vivo protection of infected mice; set-up: species or system Kungming mice; conditions: i.p. infection 3.6 × 10^5 cfu/ml
# Method: as §1, §8, §4
# [14] = test system: Staphylococcus aureus MRSA BAA-42; assay: microbe, parasite or virus in culture; assay type: cell-based
# Escherichia coli 02-1-65 [15] = assay: MIC against challenge strain (Table 3); assay type: cell-based; conditions: 02165, read-out: MIC
# [16] = Staphylococcus epidermidis, MRSE
# [17] = 1st Time, i.v. treatment after one hour
# [18] = 2nd Time (value in parentheses), i.v. treatment
molecule,measurement,setting,value
"CC1(C)S[C@@H]2[C@H](NC(=O)[C@H](N)c3ccccc3)C(=O)N2[C@H]1C(=O)O [Ampicillin, sodium ampicillin]",effect on growth of Candida albicans,"[1]; Ph-CA 5 μg/ml, Ph-SA 5 μg/ml, ampicillin 50 μg/ml, amphotericin B 200 ng/ml, fluconazole 3 μg/ml",no effect on the growth
same,MIC,[2],8 µg/mL
same,MIC,[3],0.125 µg/mL
same,MIC,"[4]; ATCC29213, read-out: MIC",< 0.015 µg/mL
same,ED50,"[5]; Staphylococcus aureus, MRSA",> 20 mg/kg
same,ED50,"[5]; Staphylococcus aureus, MRSA, 1 h",32.7 mg/kg
same,ED50,[6]; Staphylococcus aureus,23.4 mg/kg
same,ED50,"[6]; Staphylococcus aureus, 1 h",25.2 mg/kg
same,ED50,"[7]; Enterococcus faecalis, ATCC700802",3 mg/kg
same,ED50,"[7]; Enterococcus faecalis, ATCC700802, 1 h",3.37 mg/kg
same,MIC,Enterococcus (20),0.25 to 16 µg/mL
same,MIC50,Enterococcus (20); read-out: MIC50,0.5 µg/mL
same,MIC90,Enterococcus (20); read-out: MIC90,16 µg/mL
same,MIC,[8],0.015 to 0.25 µg/mL
same,MIC50,[8]; read-out: MIC50,0.03 µg/mL
same,MIC90,[8]; read-out: MIC90,0.25 µg/mL
same,MIC Scope,[9]; 80 MRSA clinical isolates,0.06˜64 mg/l
same,MIC50,"[9]; Staphylococcus aureus, MRSA",16 µg/mL
same,MIC90,"[9]; Staphylococcus aureus, MRSA",32 µg/mL
same,MIC Scope,[10]; 25 MRSE clinical isolates,0.06˜64 mg/l
same,MIC50,[10]; [16],16 µg/mL
same,MIC90,[10]; [16],64 µg/mL
same,MIC50,Acenetobactor (20),> 128 µg/mL
same,MIC90,Acenetobactor (20),> 128 µg/mL
same,MIC50,[11],0.25 µg/mL
same,MIC90,[11],1 µg/mL
same,MIC,[11]; read-out: MIC Scope,0.015 to 0.25 µg/mL
same,ED50,"Escherichia coli 02-1-65 [12]; Escherichia coli, 02165, 2nd Time (value in parentheses), i.v. treatment, read-out: ED50",> 30.8 mg/kg
same,ED50,"Escherichia coli 02-1-65 [12]; Escherichia coli, 02165, 1 h, 1st Time, i.v. treatment after one hour, read-out: ED50",> 30.8 mg/kg
same,ED50,"[13]; Staphylococcus aureus, ATCC29213, 2nd Time (value in parentheses), i.v. treatment, read-out: ED50",12.3 mg/kg
same,ED50,"[13]; Staphylococcus aureus, ATCC29213, 1 h, 1st Time, i.v. treatment after one hour, read-out: ED50",14.2 mg/kg
same,MIC,[14]; Staphylococcus aureus,0.25 µg/mL
same,MIC,Escherichia coli 02-1-65 [15],> 128 µg/mL
"Cc1nnc(SCC2=C(C(=O)[O-])N3C(=O)[C@@H](NC(=O)Cn4cnnn4)[C@H]3SC2)s1.[Na+] [Cephazoid, sodium Cephazoid]",MIC,[4],0.03 µg/mL
same,ED50,"[5]; 1st Time, mice, i.p. infection 1.7 × 10^5 cfu/ml, i.v. treatment after one hour",11.82 mg/kg
same,ED50,"[5]; 2nd Time (value in parentheses), mice, i.p. infection 1.7 × 10^5 cfu/ml, i.v. treatment",(>10) mg/kg
same,ED50,"[6]; 1st Time, mice, i.p. infection 5.5 × 10^5 cfu/ml, i.v. treatment after one hour",9.04 mg/kg
same,ED50,"[6]; 2nd Time (value in parentheses), mice, i.p. infection 5.5 × 10^5 cfu/ml, i.v. treatment",(8.78) mg/kg
same,ED50,"[7]; 1st Time, mice, i.p. infection 8.0 × 10^6 cfu/ml, i.v. treatment after one hour",>10 mg/kg
same,ED50,"[7]; 2nd Time (value in parentheses), mice, i.p. infection 8.0 × 10^6 cfu/ml, i.v. treatment",(12.91) mg/kg
same,ED50,Escherichia coli 02-1-65 [12]; [17],>30.77 mg/kg
same,ED50,Escherichia coli 02-1-65 [12]; [18],(>30.77) mg/kg
same,ED50,[13]; [17],29.03 mg/kg
same,ED50,[13]; [18],(11.20) mg/kg
same,MIC,[14]; Staphylococcus aureus MRSA BAA-42,0.5 µg/mL
B1,inhibition effect as compared to PMC-CA,[1]; 20 μg/ml,about 30%
same,antifungal effect against Candida albicans in vitro and in vivo,[1]; general statement,no effect
